Test results published in article PMC9043818, “Coordination complexes of zinc and manganese based on pyridine-2,5-dicarboxylic acid N-oxide: DFT studies and antiproliferative activities consideration” (RSC Advances, 2021).
Like-named read-outs stand apart in the source and are kept apart here.

Tests used:
[1] = system: human breast cancer cells MCF-7; assay: MTT antiproliferative assay, MCF-7; type: cell-based; settings: mean ± SD
Procedure: (§1) Human breast cancer cells MDA-MD-231 (ATCC HTB-26), human breast cancer cells MCF-7 (ATCC HTB-22), human cervix epithelial carcinoma HeLa (ATCC CCL-2), human colon cancer cell line HT-29 (ATCC HTB-38), mouse neuroblastoma cell line Neuro-2a (ATCC CCL-131) and mouse fibroblast L-929 cell line (ATCC CCL-1) were obtained from the American Type Culture Collection (ATCC; Manassas, VA, USA) and cultured at 37 °C in a humidified atmosphere of 5% CO2 in air. HeLa cells were cultured in Dulbecco's Modified Eagle's Medium (DMEM) with 0.1 mM nonessential amino acids, 2 mM L-glutamine, 1.0 mM sodium pyruvate and 5% fetal bovine serum, at 37 °C in an atmosphere of 5% CO2. Cells were plated in 96-well sterile plates at a density of 1 × 10^4 cells per well in 100 μL of medium and incubated for 24 h. Also MDA-MD-231, HT-29, MCF-7 and Neuro-2a were cultured in DMEM containing 10% fetal bovine serum, 100 units per ml of penicillin and 100 μg ml^−1 of streptomycin. L-929 cells were cultured in RPMI-1640 medium containing 10% fetal bovine serum, 100 units per ml of penicillin and 100 μg ml^−1 of streptomycin.
(§2) Complexes 1–3 ([Mn2(pydco)2(bpy)2(H2O)2]·2H2O (1), [Zn(bpy)(Hpydco)2] (2) and [Zn(bpy)Cl(Hpydco)]·2H2O (3)) were screened for antiproliferative activity against human breast cancer cells (MDA-MD-231), human cervix epithelial carcinoma (HeLa), human colon cancer cell line (HT-29), human breast cancer cells (MCF-7), mouse neuroblastoma cell line (Neuro-2a) and mouse fibroblast L-929 cell line using cisplatin as a comparative standard. Cell viability was evaluated by a colorimetric method based on the tetrazolium salt MTT ([3-(4,5-dimethylthiazol-2-yl)-2,5-diphenyltetrazolium bromide]), which is reduced by living cells to yield purple formazan crystals. Cells were seeded in 96-well plates at a density of 2–5 × 10^4 cells of MDA-MD-231, MCF-7, HeLa, HT-29, Neuro-2a and L-929 per well in 200 μL of culture medium and left to incubate overnight for optimal adherence. After careful removal of the medium, 200 μL of a dilution series of the complexes in fresh medium were added and incubation was performed at 37 °C/5% CO2 for 72 h. Complexes 1–3 were first solubilized in DMSO, diluted in medium and added to the cells in final concentrations between 20 nM and 200 μM. […] Cisplatin was first solubilized in saline and then added at the same concentrations used for the other complexes. At the end of the incubation period, the complexes were removed, and the cells were incubated with 200 μL of MTT solution (500 μg ml^−1). After 3–4 h at 37 °C/5% CO2, the medium was removed, and the purple formazan crystals were dissolved in 200 μL of DMSO by shaking. The cell viability was evaluated by measurement of the absorbance at 570 nm by using a STAT FAX-2100 microplate reader (Awareness Technology, Palm City, FL, USA). The cell viability was calculated by dividing the absorbance of each well by that of the control wells (cells treated with medium containing 1% DMSO). Each experiment was repeated at least three times and each point was determined in at least three replicates.
(§3) IC50 values are expressed as mean ± standard deviation (SD) from at least three independent experiments. Statistical tests including One way ANOVA, Tukey multiple comparison or unpaired Student's t-tests were performed using SPSS, ver.17 software. A p value of less than 0.05 was considered as significant.

[2] = system: human breast cancer cells MDA-MD-231; assay: MTT antiproliferative assay, MDA-MD-231; type: cell-based; settings: 72 h incubation, mean ± SD
Procedure: as §1, §2, §3

[3] = system: human colon cancer cell line HT-29; assay: MTT antiproliferative assay, HT-29; type: cell-based; settings: mean ± SD
Procedure: as §1, §2, §3

[4] = system: human cervix epithelial carcinoma HeLa; assay: MTT antiproliferative assay, HeLa; type: cell-based; settings: 72 h incubation, mean ± SD
Procedure: as §1, §2, §3

[5] = system: mouse neuroblastoma cell line Neuro-2a; assay: MTT antiproliferative assay, Neuro-2a; type: cell-based; settings: 72 h incubation, mean ± SD
Procedure: as §1, §2, §3

[6] = system: mouse fibroblast L-929 cell line; assay: MTT assay, normal cell line L929; type: cell-based; settings: IC50 > 100 μM considered inactive, read-out: IC50 ± SD L929
Procedure: as §1, §2, §3

[7] = system: MDA-MB-231 cancer cell line; assay: Apoptosis assay by flow cytometry (Annexin V-FITC/PI); type: cell-based, human; settings: for Apoptotic cells (%) / Late apoptotic/necrotic cells (%) / Necrotic cells (%) / Vital cells (%): MDA-MD-231, 24 h; for Apoptotic cells (%) / Late apoptotic/necrotic cells (%) / Necrotic cells (%) / Vital cells (%) / induction of apoptosis (flow cytometry): concentration close to the IC50; for induction of apoptosis (flow cytometry): MDA-MB-231, 24 h; for population of apoptotic cell, fold higher than cisplatin: at the same concentration as cisplatin
Procedure: In order to study in which way 1–3 produced the cellular death (necrosis or apoptosis) studies of flow cytometry were performed on the complexes and cisplatin as a reference. Four areas in the diagrams stand for necrotic cells (Q1, low Annexin V-FITC and high PI signal, left square on the top), late apoptosis or necrosis cells (Q2, high Annexin V-FITC and high PI signal, right square on the top), live cells (Q3, low Annexin V-FITC and low PI signal, left square at the bottom), apoptosis cells (Q4, high Annexin V-FITC and low PI signal, right square at the bottom), respectively.

[8] = system: MDA-MB-231 breast cancer cells; assay: TUNEL assay (dUTP-FITC, confocal microscopy); type: cell-based, human; settings: MDA-MB-231, 24 h, vs 0.3% DMSO controls
Procedure: Analysis of apoptosis for 2 and 3 by cytometry using TUNEL assay. Also, apoptosis was detected using an in situ cell death detection kit (Boehringer Mannheim Corp., Indianapolis, IN) as described by Narla et al. and Zhu et al. (Narla et al., 2000;[42] Zhu et al., 1998 (ref. [43])). Cells were incubated with 1–3 in 0.3% DMSO or 1 : […], permeabilized and incubated with the reaction mixture containing TdT- and FITC-conjugated dUTP, and counterstained with propidium iodide. Cells were transferred to slides and viewed with a confocal laser scanning microscope (Bio-Rad MRC 1024) mounted on a Nikon Eclipse E800 series upright microscope as reported previously (Narla et al., 2000;[42] Zhu et al., 1998 (ref. [43])).

[9] = system: MDA-MD-231, MCF-7, HeLa, HT-29, Neuro-2a and L-929 cell lines; assay: MTT assay, range over all cell lines; type: cell-based; settings: 72 h, all six cell lines, read-out: IC50 values, span over all cell lines
Procedure: Human breast cancer cells MDA-MD-231 (ATCC HTB-26), human breast cancer cells MCF-7 (ATCC HTB-22), human cervix epithelial carcinoma HeLa (ATCC CCL-2), human colon cancer cell line HT-29 (ATCC HTB-38), mouse neuroblastoma cell line Neuro-2a (ATCC CCL-131) and mouse fibroblast L-929 cell line (ATCC CCL-1) were obtained from the American Type Culture Collection (ATCC; Manassas, VA, USA) and cultured at 37 °C in a humidified atmosphere of 5% CO2 in air. HeLa cells were cultured in Dulbecco's Modified Eagle's Medium (DMEM) with 0.1 mM nonessential amino acids, 2 mM L-glutamine, 1.0 mM sodium pyruvate and 5% fetal bovine serum, at 37 °C in an atmosphere of 5% CO2. […]
Complexes 1–3 ([Mn2(pydco)2(bpy)2(H2O)2]·2H2O (1), [Zn(bpy)(Hpydco)2] (2) and [Zn(bpy)Cl(Hpydco)]·2H2O (3)) were screened for antiproliferative activity against human breast cancer cells (MDA-MD-231), human cervix epithelial carcinoma (HeLa), human colon cancer cell line (HT-29), human breast cancer cells (MCF-7), mouse neuroblastoma cell line (Neuro-2a) and mouse fibroblast L-929 cell line using cisplatin as a comparative standard. Cell viability was evaluated by a colorimetric method based on the tetrazolium salt MTT ([3-(4,5-dimethylthiazol-2-yl)-2,5-diphenyltetrazolium bromide]), which is reduced by living cells to yield purple formazan crystals. […]

[10] = experiment for 2 (Table 4), 2 and cisplatin at the same concentration
[11] = experiment for 3 (Table 5), 3 and cisplatin at the same concentration, MDA-MB-231
[12] = Homo sapiens, MCF7, 72 h incubation
[13] = Homo sapiens, HT-29, 72 h incubation
[14] = Mus musculus, L929, 72 h incubation

Molecule | IC50 ([1]; 72 h incubation) | IC50 [2] | IC50 ([3]; 72 h incubation) | IC50 [4] | IC50 [5] | IC50 ([6]; 72 h incubation) | population of apoptotic cell (apoptotic + late apoptotic) [7, 10] | Apoptotic cells (%) ([7]; experiment for 2) | Late apoptotic/necrotic cells (%) ([7]; experiment for 2) | Necrotic cells (%) ([7]; experiment for 2) | Vital cells (%) ([7]; experiment for 2) | population of apoptotic cell (apoptotic + late apoptotic) [7, 11] | Apoptotic cells (%) ([7]; experiment for 3) | Late apoptotic/necrotic cells (%) ([7]; experiment for 3) | Necrotic cells (%) ([7]; experiment for 3) | Vital cells (%) ([7]; experiment for 3) | IC50 [1, 12] | IC50 ([2]; Homo sapiens) | IC50 [3, 13] | IC50 ([4]; Homo sapiens, HeLa) | other results
N.N.[Cl][Pt][Cl] [Cisplatin, cisplatin, reference compound] | 5.94 ± 1.47 µM | 24.7 ± 4.71 µM | 19.3 ± 3.46 µM | 0.45 ± 0.13 µM | 103 ± 9.8 µM | 0.7 ± 0.2 µM | 65.28% | 34.65% | 30.63% | 0.98% | 33.74% | 35.8% | 15.80% | 20.00% | 3.20% | 61.00% |  |  |  |  | 
O=C(O)c1ccc(C(=O)O)[n+]([O-])c1 [Complex H2pydco, pyridine-2,5-dicarboxylic acid N-oxide] |  |  |  |  |  |  |  |  |  |  |  |  |  |  |  |  | 57.9 ± 5.33 µM | 45.7 ± 4.75 µM | 58.9 ± 5.01 µM | 67.1 ± 5.45 µM | IC50 ([5]; mouse/rat NG108-15, N2a): > 100 µM; IC50 [6, 14]: > 100 µM
c1ccc(-c2ccccn2)nc1 [bpy, 2,2′-bipyridine, reference compound] |  |  |  |  |  |  |  |  |  |  |  |  |  |  |  |  | 51.3 ± 4.78 µM | 24.9 ± 1.98 µM | 67.8 ± 5.54 µM | 46.5 ± 4.03 µM | IC50 ([5]; mouse/rat NG108-15, N2a): 97.3 ± 8.7 µM; IC50 [6, 14]: > 100 µM
[Mn2(pydco)2(bpy)2(H2O)2]·2H2O [Complex 1] | 56.6 ± 7.78 µM | 28.9 ± 2.47 µM | 57.9 ± 4.71 µM | 39.2 ± 2.98 µM | 79.5 ± 8.44 µM | > 100 µM |  |  |  |  |  |  |  |  |  |  |  |  |  |  | 
[Zn(bpy)(Hpydco)2] [Complex 2] | 15.6 ± 3.24 µM | 5.94 ± 1.98 µM | 17.3 ± 2.57 µM | 41.2 ± 5.07 µM | 81.2 ± 9.28 µM | > 100 µM | 79.45% | 43.91% | 35.54% | 0.82% | 19.73% |  |  |  |  |  |  |  |  |  | induction of apoptosis (flow cytometry) [7]: could induce apoptosis; population of apoptotic cell, fold higher than cisplatin ([7]; MDA-MB-231): ~1.2 fold; induction of apoptosis (TUNEL, apoptotic nuclei) [8]: induce apoptosis; IC50 [9]: 5.94 to 100 µM
[Zn(bpy)Cl(Hpydco)]·2H2O [Complex 3] | 17.9 ± 2.66 µM | 9.18 ± 2.25 µM | 14.6 ± 3.55 µM | 37.6 ± 4.61 µM | 87.7 ± 6.93 µM | > 100 µM |  |  |  |  |  | 63.3% | 4.30% | 59.00% | 4.70% | 32.00% |  |  |  |  | induction of apoptosis (flow cytometry) [7]: could induce apoptosis; population of apoptotic cell, fold higher than cisplatin ([7]; MDA-MB-231): ~1.8 fold; induction of apoptosis (TUNEL, apoptotic nuclei) [8]: induce apoptosis; IC50 [9]: 5.94 to 100 µM
